Reference: US20240293418A1, “COMBINATION THERAPY FOR TREATING CANCER” (Epizyme, Inc., priority 2016, published 2024)
Like-named read-outs stand apart in the source and are kept apart here.

What was measured:
U266 = assay: 7 day pretreatment + 4-day co-treatment combination model (Cell Titer Glo); settings: for IC50: read-out: 4-day IC50
Description: (§1) Assay plates were developed for endpoint analysis using Cell Titer Glo to measure ATP content, which was used as an indicator of cell viability. DMSO concentration was kept constant throughout the assay at less than 0.2% v/v.
(§2) Cell lines: The cell lines MI1.S and U266B1 were obtained from American Type Culture Collection (ATCC; Rockville, MD). The cell lines LP-1, L-363 were obtained from Deutsche Sammlung von Mikroorganismen and Zellkulturen (DSMZ; Braunschweig, Germany) and the cell line KMS-28BM was obtained from Japanese Collection of Research Bioresources Cell Bank (JCRB, Osaka Japan). All cells were maintained as instructed by the supplier and cultures were maintained at 37° C. in a humidified atmosphere and 5% CO2.
(§3) Loewe volumes greater than 1 denoted synergy and volumes <−1 denoted antagonism.

LP-1 = assay: as above; settings: for IC50: read-out: 4-day IC50
Description: as §1, §2, §3

MOLP-8 = assay: as above; settings: second agent + tazemetostat, MOLP-8 t(11;14)
Protocol: as §1
(§4) All cells were maintained as instructed by the supplier and cultures were maintained at 37° C. in a humidified atmosphere and 5% CO2.
as §3

MM1.S = assay: as above; settings: read-out: 4-day IC50
Description: as §1, §2, §3

KMS-28-BM = assay: as above; settings: for IC50: read-out: 4-day IC50
Protocol: as §1, §4, §3

L-363 = assay: as above; settings: for IC50: read-out: 4-day IC50
Description: as §1, §2, §3

Granta-519 [1] = assay: mantle cell lymphoma 7 day pretreatment + 4-day co-treatment model (Cell Titer Glo); settings: second agent + tazemetostat; 7 day pretreatment + 4-day co-treatment; Granta-519
Description: (§5) Cells were then co-treated in triplicate with a second compound, 3-fold serially diluted for additional 4 days. After this time, plates were developed for endpoint analysis using Cell Titer Glo to measure ATP content, which is used as an indicator of cell viability.
(§6) A Loewe volume greater than 1 denoted synergy. A Loewe volume between −1 and 1 denoted additivity, and a negative Loewe volume of less than −1, denoted antagonism.

Maver-1 = assay: as above
Description: as §5, §6

Jeko-1 [2] = assay: as above; settings: for IC50: Homo sapiens, JeKo-1, 96 h, read-out: Second agent IC50; for Bliss Volume / HSA Volume / Loewe Volume / Synergy Score: second agent + tazemetostat, 7 day pretreatment + 4-day co-treatment, Jeko-1
Description: as §5, §6

Jeko-1 [3] = assay: mantle cell lymphoma 7 day co-treatment model; assay type: cell-based; settings: for Best CI / Bliss Volume / HSA Volume / Loewe Volume / Synergy Score: second agent + tazemetostat, 7 day co-treatment; for IC50: second agent alone, 7 day co-treatment model
Granta-519 [4] = assay: mantle cell lymphoma 7 day co-treatment model; assay type: cell-based
[5] = second agent + tazemetostat, 7 day pretreatment + 4-day co-treatment, U266 t(11;14)
[6] = second agent + tazemetostat, 7 day pretreatment + 4-day co-treatment, LP-1 t(4;14)
[7] = second agent + tazemetostat, 7 day pretreatment + 4-day co-treatment, KMS-28-BM t(4;14)
[8] = second agent + tazemetostat, 7 day pretreatment + 4-day co-treatment, L-363 t(20;22)
[9] = second agent + tazemetostat, 7 day pretreatment + 4-day co-treatment, Maver-1
[10] = second agent + tazemetostat, 7 day co-treatment

| Compound | IC50 (U266; Homo sapiens, U-266, 96 h) | combinatorial effect by Loewe volumes (U266; [5]) | IC50 (LP-1; Homo sapiens, LP-1, 96 h) | combinatorial effect by Loewe volumes (LP-1; [6]) | combinatorial effect by Loewe volumes (MOLP-8) | IC50 (MM1.S; Homo sapiens, MM1.S, 96 h) | IC50 (KMS-28-BM; KMS-28BM, 96 h) | combinatorial effect by Loewe volumes (KMS-28-BM; [7]) | IC50 (L-363; Homo sapiens, L-363, 96 h) | combinatorial effect by Loewe volumes (L-363; [8]) | also measured |
| --- | --- | --- | --- | --- | --- | --- | --- | --- | --- | --- | --- |
| CC(C)C[C@H](NC(=O)[C@H](CCc1ccccc1)NC(=O)CN1CCOCC1)C(=O)N[C@@H](Cc1ccccc1)C(=O)N[C@@H](CC(C)C)C(=O)[C@@]1(C)CO1 [Carfilzomib, carfilzomib] | 3 nM | S (Synergy) | 3.5 nM | S (Synergy) | A (Additive) | 1.07 nM | 2 nM | S (Synergy) | 2 nM | A (Additive) |  |
| CC(C)C[C@H](NC(=O)CNC(=O)c1cc(Cl)ccc1Cl)B(O)O [Ixazomib, ixazomib] |  |  |  |  | A (Additive) |  |  |  |  |  | combinatorial effect by Loewe volumes (U266): S (key: Antagonism; Synergy; Additive; X: Not Tested); IC50 (U266; single agent, U266 t(11; 14)): 1.5 nM; combinatorial effect by Loewe volumes (LP-1): S (key: Antagonism; Synergy; Additive; X: Not Tested); IC50 (LP-1; single agent, LP-1 t(4; 14)): 12 nM; IC50 (MM1.S; single agent, MM1.S t(14; 16)): 12 nM; combinatorial effect by Loewe volumes (KMS-28-BM): A (key: Antagonism; Synergy; Additive; X: Not Tested); IC50 (KMS-28-BM; single agent, KMS-28-BM t(4; 14)): 19 nM; combinatorial effect by Loewe volumes (L-363): A (key: Antagonism; Synergy; Additive; X: Not Tested); IC50 (L-363; single agent, L-363 t(20; 22)): 47 nM |
| O=C(CCCCCCC(=O)Nc1ccccc1)NO [Vorinostat, vorinostat] |  | S (Synergy) | 669 nM | S (Synergy) | A (Additive) |  |  | S (Synergy) |  | A (Additive) |  |
| CO[C@H]1C[C@@H]2CC[C@@H](C)[C@@](O)(O2)C(=O)C(=O)N2CCCC[C@H]2C(=O)O[C@H]([C@H](C)C[C@@H]2CC[C@@H](OCCO)[C@H](OC)C2)CC(=O)[C@H](C)/C=C(\C)[C@@H](O)[C@@H](OC)C(=O)[C@H](C)C[C@H](C)/C=C/C=C/C=C/1C [Everolimus, everolimus] |  |  |  |  |  |  |  |  |  |  | Loewe volume (Granta-519 [1]): 5.1; Loewe volume (Maver-1; [9]): 6.5; IC50 (Jeko-1 [2]): 0.7 nM; Bliss Volume (Jeko-1 [2]): 1.42; HSA Volume (Jeko-1 [2]): 4.62; Loewe Volume (Jeko-1 [2]): 3.95; Synergy Score (Jeko-1 [2]): 4.03; Best CI (Jeko-1 [3]): 1.0; Bliss Volume (Jeko-1 [3]): −0.060; HSA Volume (Jeko-1 [3]): 0.084; Loewe Volume (Jeko-1 [3]): 0.56; Synergy Score (Jeko-1 [3]): 0.4; IC50 (Jeko-1 [3]): 0.5 nM |
| C=CC(=O)N1CCC[C@@H](n2nc(-c3ccc(Oc4ccccc4)cc3)c3c(N)ncnc32)C1 [Ibrutinib, ibrutinib] |  |  |  |  |  |  |  |  |  |  | Loewe volume (Granta-519 [1]): 5.8; IC50 (Granta-519 [4]; Homo sapiens, 168 h, second agent alone, 7 day co-treatment model): 856 nM; Best CI (Granta-519 [4]; [10]): 0.38; Bliss Volume (Granta-519 [4]; [10]): 0.894; HSA Volume (Granta-519 [4]; [10]): 3.86; Loewe Volume (Granta-519 [4]; [10]): 4.16; Synergy Score (Granta-519 [4]; [10]): 2.26; IC50 (Maver-1; Homo sapiens, Maver1, read-out: Second agent IC50): > 3300 nM; Best CI (Maver-1; [9]): 0.08; Bliss Volume (Maver-1; [9]): 0.804; HSA Volume (Maver-1; [9]): 3.90; Loewe Volume (Maver-1; [9]): 3.76; Loewe volume (Maver-1; [9]): 3.8; Synergy Score (Maver-1; [9]): 2.33 |
| N[C@@H](Cc1ccc(N(CCCl)CCCl)cc1)C(=O)O [Melphalan, melphalan] | > 10000 nM |  | > 10000 nM |  |  | 2940 nM | 1120 nM |  | > 10000 nM |  |  |
| O=P1(N(CCCl)CCCl)NCCCO1 (stereo not shown) [Cyclophosphomide, cyclophosphamide] | > 10000 nM |  | 6000 nM |  |  | 1180 nM | 1480 nM |  | > 10000 nM |  |  |
| Nc1cccc2c1CN(C1CCC(=O)NC1=O)C2=O (stereo not shown) [Lenalidomide, lenalidomide] | > 10000 nM | S (Synergy) | 973 nM | S (Synergy) | S (Synergy) | 305 nM | > 10000 nM | S (Synergy) | 379 nM | S (Synergy) | IC50 (Jeko-1 [2]): 902 nM; Bliss Volume (Jeko-1 [2]): 2.67; HSA Volume (Jeko-1 [2]): 4.46; Loewe Volume (Jeko-1 [2]): 4.35; Synergy Score (Jeko-1 [2]): 4.01; Best CI (Jeko-1 [3]): 0.35; Bliss Volume (Jeko-1 [3]): 1.86; HSA Volume (Jeko-1 [3]): 2.74; Loewe Volume (Jeko-1 [3]): 2.87; Synergy Score (Jeko-1 [3]): 3.68; IC50 (Jeko-1 [3]): 872 nM |
| CC[C@]1(O)C[C@H]2CN(CCc3c([nH]c4ccccc34)[C@@](C(=O)OC)(c3cc4c(cc3OC)N(C=O)[C@H]3[C@@](O)(C(=O)OC)[C@H](OC(C)=O)[C@]5(CC)C=CCN6CC[C@]43[C@@H]65)C2)C1 [Vincristine, vincristine] | 0.5 nM |  | 2.3 nM |  |  | 1 nM | 1.15 nM |  | 1 nM |  |  |
| O=C1CCC(N2C(=O)c3ccccc3C2=O)C(=O)N1 (stereo not shown) [Thalidomide, thalidomide] | > 10000 nM |  | > 10000 nM |  |  | > 10000 nM | > 10000 nM |  | > 10000 nM |  |  |
| Cn1c(CCCC(=O)O)nc2cc(N(CCCl)CCCl)ccc21 [Bendamustine, bendamustine] | > 10000 nM |  | > 10000 nM |  |  | > 10000 nM | > 10000 nM |  | > 10000 nM |  |  |
| COc1cccc2c1C(=O)c1c(O)c3c(c(O)c1C2=O)C[C@@](O)(C(=O)CO)C[C@@H]3O[C@H]1C[C@H](N)[C@H](O)[C@H](C)O1 [Doxorubicin, doxorubicin] | 50 nM | A (Additive) | 203 nM | S (Synergy) | A (Additive) | 8 nM | 87 nM | A (Additive) | 10 nM | A (Additive) |  |
| C[C@]12C=CC(=O)C=C1CC[C@@H]1[C@@H]2[C@@H](O)C[C@@]2(C)[C@H]1CC[C@]2(O)C(=O)CO [Prednisolone, prednisolone] | > 10000 nM | A (Additive) | 36 nM | S (Synergy) | S (Synergy) | 158 nM | 36 nM | S (Synergy) | 100 nM | A (Additive) |  |
| COc1cc([C@@H]2c3cc4c(cc3[C@@H](O[C@@H]3O[C@@H]5CO[C@@H](C)O[C@H]5[C@H](O)[C@H]3O)[C@H]3COC(=O)[C@H]23)OCO4)cc(OC)c1O [Etoposide, etoposide] | 787 nM |  | 3000 nM |  |  | 122 nM | 478 nM |  | 140 nM |  |  |
